Measurements reported in patent US20160213647A1, “COMPOSITIONS AND METHODS FOR INHIBITING VIRAL INFECTION” (priority 2015, published 2016).
≈ marks a conversion by molar mass, not a printed value. Like-named read-outs stand apart in the source and are kept apart here.

Columns and labels:
[1] = system: influenza A virus (IAV) strain PR8 (H1N1); type: cell-based
[2] = system: Vaccinia; experiment: microbe, parasite or virus in culture; type: cell-based; details: Orthopoxvirus vaccinia
[3] = system: Rabies Virus; experiment: microbe, parasite or virus in culture; type: cell-based; details: Lyssavirus rabies
[4] = system: DENV-1; experiment: Virus yield reduction assay by qRT-PCR in Vero cells; type: cell-based; details: Dengue virus, DENV1, Vero, 48 h, read-out: Antiviral Activity IC50
[5] = system: HIV-1 91US001
[6] = in vitro; details: African green monkey
[7] = in vivo; cited from earlier work
[8] = system: HIV-1 MDR 769; experiment: microbe, parasite or virus in culture; details: Human immunodeficiency virus 1, PBMC
[9] = system: JUNV strain XJCl3; experiment: microbe, parasite or virus in culture; details: Mammarenavirus juninense, Vero, 48 h
[10] = system: JUNV strain XJCl3; experiment: microbe, parasite or virus in culture; details: Mammarenavirus juninense, A549, 48 h
[11] = system: HIV-1 isolate NL4-3; experiment: microbe, parasite or virus in culture; details: Human immunodeficiency virus 1, NL43, PBMC
[12] = system: HIV-1 isolate 1022-48; experiment: microbe, parasite or virus in culture; details: Human immunodeficiency virus 1, PBMC
[13] = system: HIV-1 isolate 4736_4; experiment: microbe, parasite or virus in culture; details: Human immunodeficiency virus 1, PBMC

NCC(=O)Nc1ccc(-n2nc(C(F)(F)F)cc2-c2ccc3c(ccc4ccccc43)c2)cc1 [AR-12, 2-amino-N-(4-(5-(phenanthren-2-yl)-3-(trifluoromethyl)-1H-pyrazol-1-yl)phenyl)acetamide]
viral infection (% infection) [1]: prevents viral infections
EC50 [2]: > 2400 nM
EC90 [2]: > 2400 nM
EC50 [3]: 2610 nM
IC50 [4]: 640 nM
IC50 [5]: 240 nM
CC50 ([6]; CC50 (Neutral Red)): 1.8 µg/mL (≈ 3.91 µM)
CC50 ([6]; CC50 (neutral red)): 2.4 µg/mL (≈ 5.21 µM)
CC50 ([6]; CC50 (visual)): 2.8 µg/mL (≈ 6.08 µM)
accumulation in tissues [7]: appreciable accumulation in tissues
blood brain barrier penetration [7]: rapid blood brain barrier penetration
IC50 [8]: 310 nM
EC50 [9]: 230 ± 10 nM
EC50 [10]: 550 ± 50 nM
IC90 [11]: 749 nM
IC90 ([11]; read-out: IC50): 2170 nM
IC90 [12]: 489 nM
IC90 ([12]; read-out: IC50): 3680 nM
IC90 [13]: 762 nM
IC90 ([13]; read-out: IC50): 2240 nM
